Values quoted from earlier work in patent US20050049255A1, “Therapeutic combinations” (Pfizer Inc, priority 2003, published 2005).

Tested on: dysmenorrhoea

| Compound | efficacy in the treatment of dysmenorrhoea (given intravenously, pilot study) | intensity of pain in women with dysmenorrhoea (double blind, randomised placebo controlled cross over trial, oral) |
| --- | --- | --- |
| 1-deamino-2-D-Tyr (Oet)-4-Thr-8-Orn-oxytocin | effective in the treatment of dysmenorrhoea |  |
| COc1ccc(S(=O)(=O)N2c3ccc(Cl)cc3[C@](O)(c3ccccc3Cl)[C@@H]2C(=O)N2CCC[C@H]2C(N)=O)cc1OC [Relcovaptan] |  | dose dependently reduced the intensity of pain |
